Conditions: solution at pH 8.0

CN1CCCC1c1cccnc1 (stereo not shown) [nicotine]
portion of nicotine unionized and free to be absorbed: fifty

From patent US6893654B2, “Two-stage transmucosal medicine delivery system for symptom relief” (priority 1998, dated 2005)
